{"source": "paper PMC9297971", "about": "(Chembiochem, 2021)", "origin": "cited, not measured here", "system": "HIV-1", "settings": "read-out: IC50 of clinically used T20; ref 15b, 36"}
{"substance": "Enfuvirtide [T20]", "values": [{"measurement": "IC50", "value": "0.024 to 0.036", "unit": "µM"}]}
